Measurements published in DBAASP.
≈ marks a conversion by molar mass, not a printed value. Where “and” joins values, the source holds several entries; their conditions need not be identical. Equal entries are not always repeated.

How the values were obtained:
Test in all cases: ≥ marks a high value that may be exact or a test limit, other limits are often not marked, values filed in µg/mL are converted to µM
[1] = test system: Staphylococcus aureus
[2] = test system: Candida albicans ATCC 90028
[3] = test system: Pseudomonas aeruginosa
[4] = test system: Aspergillus flavus KCTC 1375
[5] = test system: Enterococcus faecium ATCC 19434
[6] = test system: Enterococcus faecium
[7] = test system: Escherichia coli
[8] = test system: Staphylococcus aureus ATCC 25923
[9] = test system: Escherichia coli O157:H7 ATCC 43895
[10] = test system: Pseudomonas aeruginosa ATCC 27853
[11] = test system: Malassezia furfur KCTC 7744
[12] = test system: Saccharomyces cerevisiae PEP 4/3l
[13] = test system: Salmonella typhimurium
[14] = test system: Klebsiella pneumoniae
[15] = test system: Staphylococcus aureus SAP 0017
[16] = test system: Staphylococcus aureus ATCC 8530
[17] = test system: Listeria monocytogenes NCTC 7973
[18] = test system: Escherichia coli W160-37
[19] = test system: Streptococcus pyogenes ATCC 19615
[20] = test system: Staphylococcus aureus ATCC 43300
[21] = test system: Acinetobacter baumannii
[22] = test system: Staphylococcus epidermidis
[23] = test system: Escherichia coli ATCC 25922
[24] = test system: Enterococcus faecalis ATCC 29212
[25] = test system: Enterococcus faecalis
[26] = test system: Staphylococcus haemolyticus
[27] = test system: Escherichia coli DH5alpha
[28] = test system: Corynebacterium xerosis
[29] = test system: Pseudomonas aeruginosa 5
[30] = test system: Pseudomonas aeruginosa 1
[31] = test system: Staphylococcus aureus 4
[32] = test system: Escherichia coli O157
[33] = test system: Staphylococcus aureus 1
[34] = test system: Pseudomonas aeruginosa 2
[35] = test system: Escherichia coli 43
[36] = test system: Candida krusei ATCC 6258
[37] = test system: Candida albicans
[38] = test system: Xanthomonas fragariae Xf349-9A
[39] = test system: Klebsiella pneumoniae 202
[40] = test system: Candida tropicalis 4912
[41] = test system: Escherichia coli 207
[42] = test system: Candida albicans 4762
[43] = test system: Pseudomonas syringae pv. actinidiae Psa3700.1.1
[44] = test system: Candida albicans 4748
[45] = test system: Candida tropicalis ATCC 13803
[46] = test system: Pseudomonas syringae pv. syringae EPS 94
[47] = test system: Candida parapsilosis ATCC 22019
[48] = test system: Erwinia amylovora PMV 6076
[49] = test system: Pseudomonas aeruginosa 302
[50] = test system: Candida glabrata ATCC 15126
[51] = test system: Candida tropicalis 4345
[52] = test system: Klebsiella pneumoniae 305
[53] = test system: Acinetobacter sp. 301
[54] = test system: Acinetobacter sp. 312
[55] = test system: Acinetobacter sp. 322
[56] = test system: Candida tropicalis
[57] = test system: Xanthomonas campestris pv. Vesicatoria 2133-2
[58] = test system: Escherichia coli 225
[59] = test system: Candida albicans 4615
[60] = test system: Klebsiella pneumoniae 341
[61] = test system: Candida albicans SC5314
[62] = test system: Xanthomonas arboricola pv. pruni CFBP 5563
[63] = test system: Escherichia coli 35

SMILES: CC(C)[C@H](NC(=O)[C@H](Cc1cnc[nH]1)NC(=O)[C@H](C)NC(=O)[C@H](C)NC(=O)[C@H](CCCCN)NC(=O)[C@H](CCCCN)NC(=O)[C@H](Cc1ccccc1)NC(=O)[C@H](Cc1ccccc1)NC(=O)[C@H](CO)NC(=O)CNC(=O)[C@H](Cc1c[nH]c2ccccc12)NC(=O)CN)C(=O)NCC(=O)N[C@@H](CCCCN)C(=O)N[C@@H](Cc1cnc[nH]1)C(=O)N[C@H](C(=O)NCC(=O)N[C@@H](CCCCN)C(=O)N[C@@H](C)C(N)=O)C(C)C [GWGSFFKKAAHVGKHVGKA]
- MIC [1]: 14.1 µM (≈ 28.4 µg/mL)
- MIC [2]: ≥ 40 µM
- MIC [3]: 28.3 µM (≈ 56.9 µg/mL)
- MIC [4]: 28.3 µM (≈ 56.9 µg/mL)
- MIC [5]: 28.3 µM (≈ 56.9 µg/mL)
- MIC [6]: 28.3 µM (≈ 56.9 µg/mL)
- MIC [7]: 28.3 µM (≈ 56.9 µg/mL)
- MIC [8]: 20 µM (≈ 40.2 µg/mL)
- MIC [9]: 20 µM (≈ 40.2 µg/mL)
- MIC [10]: 20 µM (≈ 40.2 µg/mL)
- MIC [11]: ≥ 40 µM

SMILES: CC[C@H](C)[C@H](N)C(=O)N[C@@H](CC(C)C)C(=O)N[C@@H](C)C(=O)N[C@@H](Cc1c[nH]c2ccccc12)C(=O)N[C@@H](CCCCN)C(=O)N[C@@H](Cc1c[nH]c2ccccc12)C(=O)N[C@@H](C)C(=O)N[C@@H](Cc1c[nH]c2ccccc12)C(=O)N[C@@H](Cc1c[nH]c2ccccc12)C(=O)N[C@@H](C)C(=O)N[C@@H](Cc1c[nH]c2ccccc12)C(=O)N[C@@H](CCCN=C(N)N)C(=O)N[C@@H](CCCN=C(N)N)C(N)=O [ILAWKWAWWAWRR]
- MIC [12]: 6.7 µM (≈ 12.2 µg/mL)
- MIC [13]: ≥ 50 µM
- MIC [14]: 50 µM (≈ 91.4 µg/mL)
- MIC [15]: 2.19 µM (≈ 4 µg/mL)
- MIC [16]: 1.55 µM (≈ 2.83 µg/mL)
- MIC [3]: > 100 µM
- MIC [17]: 0.547 µM (≈ 0.999 µg/mL)
- MIC [18]: 12.2 µM (≈ 22.3 µg/mL)
- MIC [7]: 4.37 µM (≈ 8 µg/mL)
- MIC [19]: 0.547 µM (≈ 0.999 µg/mL)
- MIC [20]: 14.7 µM (≈ 26.9 µg/mL)
- MIC [21]: 5.6 µM (≈ 10.2 µg/mL)
- MIC [8]: 2.19 µM (≈ 4 µg/mL)
- MIC [22]: 1.09 µM (≈ 2 µg/mL)
- MIC [23]: 14.7 µM (≈ 26.9 µg/mL)
- MIC [24]: 4.37 µM (≈ 8 µg/mL)
- MIC [25]: 2 µM (≈ 3.66 µg/mL)
- MIC [26]: 1.09 µM and 0.547 µM
- MIC [27]: ≥ 45 µM
- MIC [28]: 0.547 µM (≈ 0.999 µg/mL)

SMILES: CC[C@H](C)[C@H](NC(=O)[C@H](CC(C)C)NC(=O)[C@H](CCCN=C(N)N)NC(=O)[C@@H](NC(=O)[C@H](C)NC(=O)[C@H](CCCCN)NC(=O)[C@H](CCCN=C(N)N)NC(=O)[C@H](CC(C)C)NC(=O)[C@@H](N)CCCN=C(N)N)C(C)C)C(=O)N[C@@H](CCCCN)C(=O)O [RLRKAVRLIK]
- MIC [1]: 14.1 µM (≈ 17.7 µg/mL)
- MIC [29]: 2.5 µM (≈ 3.13 µg/mL)
- MIC [30]: 5 µM (≈ 6.26 µg/mL)
- MIC [3]: 10 µM (≈ 12.5 µg/mL)
- MIC [31]: 5 µM (≈ 6.26 µg/mL)
- MIC [6]: 5 µM (≈ 6.26 µg/mL)
- MIC [32]: 5 µM (≈ 6.26 µg/mL)
- MIC [33]: 2.5 µM (≈ 3.13 µg/mL)
- MIC [34]: 3.54 µM (≈ 4.43 µg/mL)

SMILES: CC(C)C[C@H](NC(=O)[C@H](CCC(N)=O)NC(=O)[C@H](CCCCN)NC(=O)[C@H](CCCN=C(N)N)NC(=O)[C@H](Cc1ccccc1)NC(=O)[C@@H](N)Cc1c[nH]c2ccccc12)C(=O)N[C@@H](CCCCN)C(=O)N[C@@H](Cc1c[nH]c2ccccc12)C(=O)O [WFRKQLKW]
- MIC [35]: 3.36 µM (≈ 4 µg/mL)
- MIC [36]: 21 µM (≈ 25 µg/mL)
- MIC [37]: 5.25 µM (≈ 6.25 µg/mL)
- MIC [38]: ≥ 50 µM
- MIC [39]: 6.71 µM (≈ 8 µg/mL)
- MIC [40]: 10.5 µM (≈ 12.5 µg/mL)
- MIC [41]: 1.68 µM (≈ 2 µg/mL)
- MIC [42]: ≥ 83.9 µM
- MIC [43]: ≥ 50 µM
- MIC [44]: 21 µM (≈ 25 µg/mL)
- MIC [45]: 21 µM (≈ 25 µg/mL)
- MIC [46]: ≥ 50 µM
- MIC [47]: 5.25 µM (≈ 6.25 µg/mL)
- MIC [48]: ≥ 50 µM
- MIC [49]: 6.71 µM (≈ 8 µg/mL)
- MIC [50]: 21 µM (≈ 25 µg/mL)
- MIC [51]: 21 µM (≈ 25 µg/mL)
- MIC [52]: 3.36 µM (≈ 4 µg/mL)
- MIC [53]: 2.37 µM (≈ 2.83 µg/mL)
- MIC [23]: 0.839 µM (≈ 1 µg/mL)
- MIC [54]: 4.75 µM (≈ 5.66 µg/mL)
- MIC [55]: 3.36 µM (≈ 4 µg/mL)
- MIC [56]: ≥ 83.9 µM
- MIC [57]: ≥ 50 µM
- MIC [58]: 0.839 µM (≈ 1 µg/mL)
- MIC [59]: ≥ 42 µM
- MIC [60]: 1.68 µM (≈ 2 µg/mL)
- MIC [61]: 10.5 µM (≈ 12.5 µg/mL)
- MIC [62]: ≥ 50 µM
- MIC [63]: 6.71 µM (≈ 8 µg/mL)
